In patent publication US20150057357A1, “BIS (THIOHYDRAZIDE AMIDE) COMPOUNDS FOR TREATING CANCERS” (The Board of Trustees of The Leland Stanford Junior …, priority 2012, published 2015):

Assays:
[1] = tested on: cell lines deficient in the hOOG1 DNA glycosylase (shOGG1-A and sh-OGG1-B); test: MTT drug sensitivity assay, base excision repair deficient cells; type: cell-based; conditions: shOGG1-A and sh-OGG1-B versus isogenic controls shCTRL-A and shCTRL-B; FIG. 3
Text: (§1) Human breast cell lines represented the normal breast (MCF12A), basal-like breast cancer (BT549, HCC1806, MDAMB468), BRCA1-mutated breast cancer (HCC1937, SUM149PT, SUM1315MO2), and luminal breast cancer (BT474, MDAMB361, and T47D). Stable cell lines expressing shRNA to hOGG1 (shOGG1) or a non-targeting control (shCTRL) and BRCA1^+/+ and BRCA1^−/− mouse mammary epithelial cells have been previously described (E. Alli, V. B. Sharma, P. Sunderesakumar, J. M. Ford, Defective repair of oxidative dna damage in triple-negative breast cancer confers sensitivity to inhibition of poly(ADP-ribose) polymerase, Cancer Res, 69, 2009, 3589-3596). All cell lines were maintained at 37° C. and 5% CO2.
(§2) Cells were exposed to increasing concentrations of elesclomol and incubated at 37° C. in the presence of 5% CO2 for 96 hours. Cellular sensitivity was then determined by MTT assay and expressed as a percentage of the vehicle control (DMSO). Each data point represents the average of quadruplicate determinations +/−S.D. Images were obtained under 10× objective and are representative.
Two different cell lines deficient in the hOOG1 DNA glycosylase that initiates base excision repair (shOGG1-A and sh-OGG1-B) and their isogenic control cells lines (shCTRL-A and shCTRL-B) were examined for sensitivity to elesclomol.

[2] = tested on: basal-like breast cancer cells (BT549, HCC1806, MDAMB468); test: MTT drug sensitivity assay, basal-like breast cancer cells; type: cell-based, human
Text: as §1, §2
(§3) Cell lines that represent the normal breast or BRCA1-mutated, basal-like or luminal breast cancers were examined for sensitivity to elesclomol. Shown in FIG. 1 are images of BRCA-1 mutated, basal-like or luminal breast cancer cell cultures after treatment with 0 μM, 0.2 μM or 1 μM elesclomol. […]

[3] = tested on: normal breast cells (MCF12A); test: MTT drug sensitivity assay, normal breast cells; type: cell-based, human; conditions: concentrations of up to 1 μM, 96 hours, FIG. 2
Text: as §1, §2, §3

[4] = tested on: luminal breast cancer cells (BT474, MDAMB361, T47D); test: MTT drug sensitivity assay, luminal breast cancer cells; type: cell-based, human; conditions: concentrations of up to 1 μM, 96 hours, FIG. 2
Text: as §1, §2, §3

[5] = tested on: BRCA1-mutated breast cancer cells (HCC1937, SUM149PT, SUM1315MO2); test: MTT drug sensitivity assay, BRCA1-mutated breast cancer cells; type: cell-based, human
Text: as §1, §2, §3

CN(NC(=O)CC(=O)NN(C)C(=S)c1ccccc1)C(=S)c1ccccc1 [elesclomol]
sensitivity to elesclomol (cell viability, MTT) [1]: increased sensitivity
sensitivity to elesclomol (cellular viability dose-response) ([2]; basal-like breast cancers compared to normal breast cells or luminal breast cancer cells, FIG. 1, FIG. 2): increased sensitivity
induced cell death ([2]; concentrations of up to 1 μM, 96 hours, basal-like breast cancer cells, FIG. 2): up to 75%
effect of treatment on cells (cell death) [3]: remained unaffected
effect of treatment on cells (cell death) [4]: remained unaffected
sensitivity to elesclomol (cellular viability dose-response) ([5]; BRCA1-mutated breast cancers compared to normal breast cells or luminal breast cancer cells, FIG. 1, FIG. 2): increased sensitivity
induced cell death ([5]; concentrations of up to 1 μM, 96 hours, BRCA1-mutated breast cancer cells, FIG. 2): up to 95%
